According to article PMC9138090, “Study on the Neuroprotective, Radical-Scavenging and MAO-B Inhibiting Properties of New Benzimidazole Arylhydrazones as Potential Multi-Target Drugs for the Treatment of Parkinson’s Disease” (Antioxidants, 2022):
Structures can show the parent of a compound that is named as a salt.

Assays:
rat brain synaptosomes [1] = assay: 6-OHDA-induced neurotoxicity, synaptosomal viability; type: cell-based; conditions: for increase of synaptosomal viability vs. 6-OHDA treatment: 10 µM pretreatment, 6-OHDA 1 h
Procedure: (§1) Synaptosomes were prepared from brains of adult male Wistar rats. The brains were homogenized in 10 volume of cold buffer 1, containing 5 mM HEPES and 0.32 M sucrose (pH = 7.4). The brain homogenate was centrifuged twice at 1000× g for 5 min at 4 °C. The supernatant was collected and centrifuged 3 times at 10,000× g for 20 min at 4 °C. The pellet was re-suspended in ice-cold buffer 1. The synaptosomes were isolated by using Percoll reagent to prepare the gradient. Synaptosomes were re-suspended and incubated in buffer 2, containing 290 mM NaCl, 0.95 mM MgCl2 × 6H2O, 10 mM KCl, 2.4 mM CaCl2 × H2O, 2.1 mM NaH2PO4, 44 mM HEPES, and 13 mM D-glucose. Incubations were performed in a 5% CO2 + 95% O2 atmosphere. The content of synaptosomal protein was determined according to the method of Lowry et al. using bovine serum albumin as a standard.
Synaptosomal viability was measured by (3-(4,5)-dimethylthiazol-2-yl)-2,5-diphenyl tetrazolium bromide)-test, described by Mungarro-Menchaca et al. The synaptosomes were incubated with the compounds and then treated with (3-(4,5)-dimethylthiazol-2-yl)-2,5-diphenyl tetrazolium bromide) solution (0.5 mg/mL) for 1 h at 37 °C. After incubation they were centrifuged at 15,000× g for 1 min. The formed formazan crystals were dissolved in DMSO (Dimethyl sulfoxide). The extinction was measured spectrophotometrically at λ = 580 nm.
(§2) The metabolism and oxidation of dopamine cause reactive oxygen radicals and reactive quinones to be produced, which could lead to neurotoxicity and neurodegeneration. The synaptosomes were incubated with the compounds (10 µM) for 30 min and then 6-hydroxydopamnine (150 mmol/L) was used to induce neurotoxicity. […] After 1 h, they were centrifuged on a microcentrifuge for 1 min at 15,000 rpm. The precipitates were gently mixed with buffer B and glucose and centrifuged for a second time at 15,000 rpm for 1 min. After the second wash, buffer B and glucose were added to the precipitates.
(§3) In the presented experiments, an in vitro assessment of the possible antioxidant and neuroprotective effects of the newly synthetized compounds was performed in a model of 6-OHDA induced toxicity in rat brain synaptosomes. 6-OHDA is a neurotoxicant that structurally resembles dopamine and can be used in different in vivo and in vitro models for neurotoxicity. This model resembles the histological, biochemical, and physiological characteristics of neurodegenerative diseases such as Parkinson’s and Alzheimer’s disease. […] However, their uptake into brain synaptosomes is similar among primates and rodents and they are suitable in vitro models for PD. The main mechanism of 6-OHDA toxicity includes induction of oxidative stress. It undergoes auto-oxidation or metabolic degradation to p-quinone and produces hydrogen peroxide, superoxide, and hydroxyl radicals. The process causes lipid peroxidation, protein oxidation, and DNA oxidation and finally results in oxidative stress and mitochondrial dysfunction. Rat brain synaptosomes were pretreated with compounds 3e, 3h, 3i, 3m, melatonin, and rasagiline (10 μM); after that, the samples were subjected to 6-OHDA (150 mmol/L, 1 h). The protective effects were evaluated by measurement of synaptosomal viability (MTT-test) and GSH levels (Figure 3).

rat brain synaptosomes [2] = assay: 6-OHDA-induced neurotoxicity, GSH level; type: cell-based; conditions: for restoration of GSH level vs. 6-OHDA treatment: 10 µM pretreatment, 6-OHDA 150 mmol/L 1 h
Procedure: as §1, §2, §3

SH-SY5Y cells = assay: H2O2-induced oxidative stress model in SH-SY5Y cells; type: cell-based, human; conditions: 90 min pre-incubation, H2O2 1 mM 15 min
Procedure: SH-SY5Y cells were seeded in 96-well plates at a density of 3.5 × 10^4/well and allowed to attach at the wells’ bottom overnight. […] Afterwards, the SH-SY5Y cells were washed with phosphate-buffered saline (PBS) to remove the extracellular amount of the test compounds. […] Then, the contents of all wells were changed with culture medium. After 24 h, the amount of attached viable cells was evaluated by MTT assay. […] Rasagiline and melatonin (Sigma-Aldrich Chemie GmbH) were used as reference compounds because of their well-established neuroprotective activity. […] The toxic mechanisms of hydrogen peroxide include the generation of reactive hydroxyl radicals and formation of products which could damage cellular lipids, proteins and DNA. […] For comparison, the effects of two compounds with well established antioxidant activity—rasagiline and melatonin—were also evaluated.

[3] = MTT cytotoxicity on SH-SY5Y cells; type: cell-based, human; conditions: human, SH-SY5Y neuroblastoma cells, MTT test, 24 h incubation; read-out: IC50, in vitro cytotoxicity on SH-SY5Y cells
Procedure: Human neuroblastoma cell line SH-SY5Y was obtained from the European Collection of Cell Cultures (ECACC, Salisbury, UK). The cells were maintained in 75 cm^2 flasks at 37 °C in a humidified atmosphere with 5% CO2 and cultured in RPMI 1640 medium, supplemented with 10% fetal bovine serum and 2 mM L-glutamine.
MTT (Sigma-Aldrich Chemie GmbH, Schnelldorf, Germany) assay is based on interaction between tetrazolium dye 3-(4,5-dimethylthiazol-2-yl)-2,5-diphenyltetrazolium bromide and succinic dehydrogenase in the living cells’ mitochondria. In this reaction, the formed purple formazan crystals indicate the presence of viable cells. SH-SY5Y cells were seeded in 96-well microplates at a density 2.5 × 10^4 cells/well and allowed to attach to the well surface at 37 °C in a humidified atmosphere with 5% CO2 (24 h). Different concentrations of compounds ([…]) were added to cells and incubated for 24 h. For each concentration, a set of at least 8 wells were used. After the treatment, the solution in each well was substituted with MTT (3-(4,5-dimethylthiazol-2-yl)-2,5-diphenyltetrazolium bromide) solution (0.5 mg/mL in culture medium). The microplates were further incubated for 3 h at 37 °C and the obtained formazan crystals were dissolved by 100 µL/well of DMSO. The absorbance was measured in a multiplate reader Synergy 2 (BioTek Instruments, Inc, Highland Park, Winooski, VT, USA) at 570 nm (690 nm for background absorbance).
An important step in the development of new pharmacologically active compounds is the establishment of their safety profile. An in vitro toxicity evaluation was carried out on the neuroblastoma cell line SH-SY5Y, which is a well-established model in neuroscience. The neuroblastoma SH-SY5Y are human derived cells with relatively homogeneous neuroblast-like structure. The cells express a dopamine-β-hydroxylase and tyrosine hydroxylase enzyme activity, specific types of human proteins and protein isoforms. The possible neurotoxic effects of the potential drug candidates were measured by cell viability assay (MTT-test). The IC50 values were used as a robust parameter for comparison. The test compounds were dissolved in DMSO and serially diluted in cell culture medium to achieve final concentrations ranging from 1 to 500 µM; the culture medium containing DMSO in the corresponding concentration was used as untreated controls. A concentration dependent effect on cell viability was observed after 24 h incubation.

[4] = Fe(II)-induced oxidative damage of lecithin (TBA-RS); conditions: 90 µmol/L, lecithin 1 mg/mL, FeCl2 0.1 mmol/L
Procedure: The classical method of determining the TBA-reactive substances at 532 nm as described by Asakawa and Matsushita has been used. Two groups of measurement compositions named controls and samples were prepared in phosphate buffer (K2HPO4/KH2PO4, pH 7.4) for each of the used substrates. Both of them contained equivalent concentrations of lecithin (1 mg/mL) or 2-deoxyribose (0.5 mmol/L) and FeCl2 (0.1 mmol/L). In the controls, the tested hydrazones have been omitted and in the samples the effect of the newly designed compounds at the concentrations indicated below the figures has been determined. The obtained samples were incubated at 37 °C for 30 min. The reaction was stopped, and after adding 0.5 mL 2.8% trichloroacetic acid and 0.5 mL of thiobarbituric acid, the samples were heated in boiling water for 20 min. The lecithin containing samples were centrifuged at 3000 rpm for 20 min and the supernatant was aspired out. The results have been presented as a percentage of the control sample, treated only with ferrous iron where we expected maximum oxidative damage under the described conditions.

Row | Structure (SMILES) | reduction of synaptosomal vitality compared to untreated controls (rat brain synaptosomes [1]; 6-OHDA, 1 h) | reduction of GSH level compared to untreated controls (rat brain synaptosomes [2]; 6-OHDA 150 mmol/L, 1 h) | cell viability protection vs. H2O2-treatment (SH-SY5Y cells; 1 µM) | cell viability protection vs. H2O2-treatment (SH-SY5Y cells; 10 µM) | cell viability protection vs. H2O2-treatment (SH-SY5Y cells; 50 µM) | increase of synaptosomal viability vs. 6-OHDA treatment (rat brain synaptosomes [1]) | IC50 at 24 h [3] | restoration of GSH level vs. 6-OHDA treatment (rat brain synaptosomes [2]) | sample/control absorbance ratio (% of the control), lecithin peroxidation [4]
1 | NCCc1cc(O)c(O)cc1O [6-OHDA, 6-hydroxydopamine, reference compound] | 56% | 50% | – | – | – | – | – | – | –
2 | COc1ccc2[nH]cc(CCNC(C)=O)c2c1 [Melatonin] | – | – | 20% | 29% | 52% | 68% | > 500 µM | 70% | 75%
3 | C#CCN[C@@H]1CCc2ccccc21 [Rasagiline HCl, Rasagiline] | – | – | 10% | 20% | 39% | 61% | > 500 µM | 60% | –
